Reference: patent US6706663B2, “Herbicidal 3-heterocyclic substituted benzisothiazole and benzisoxazole compounds” (Wyeth, priority 2000, dated 2004)

Assays:
[1] = tested on: CYPSE (Cyperus serotinus); assay: Flooded paddy, postemergence weed control; assay type: in vivo, Rottb.; details: postemergence weeds, rated 3-4 weeks after treatment
Procedure, shortened: (§1)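 Herbicidal effect was judged visually against a control on a 0-9 scale covering stand, vigor, malformation, size and chlorosis, three to four weeks after compound was applied into paddy flood water at about 0.0320 to 0.2500 kg/ha.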

[2] = tested on: GLXMAW (Soybean, Williams); assay: Preemergence herbicidal evaluation; assay type: in vivo, Glycine max, (L.) Merr. cv Williams; details: rated 4-5 weeks after treatment
[3] = tested on: CHEAL (Chenopodium album); assay: Postemergence herbicidal evaluation; assay type: in vivo, L.; details: for CHEAL herbicidal rating: postemergence
Procedure, shortened: (§2)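 Visual 0–9 injury scores versus control plants, covering stand, vigour, malformation, size, chlorosis and general appearance, taken four to five weeks post-spray and averaged over replicate tests. Plants were sprayed at roughly two weeks old and held on greenhouse benches.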

[4] = tested on: AMBEL (Ambrosia artemisifolia); assay: Postemergence herbicidal evaluation; assay type: in vivo, L.; details: for AMBEL herbicidal rating: postemergence
Procedure, shortened: as §2

[5] = tested on: CASOB (Cassia obtusifolia); assay: Postemergence herbicidal evaluation; assay type: in vivo, L.; details: for CASOB herbicidal rating: postemergence
Procedure, shortened: as §2

[6] = tested on: TRZAWR (Wheat, Winter, cv Riband); assay: Preemergence herbicidal evaluation; assay type: in vivo, Triticum aestivum; details: rated 4-5 weeks after treatment
Procedure, shortened: (§3)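 Preemergence soil spray, aq. acetone; greenhouse; visual 0–9 score vs control at 4–5 wk.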

GALAP (Galium aparine) = assay: Preemergence herbicidal evaluation; assay type: in vivo; details: rated 4-5 weeks after treatment
Procedure, shortened: as §3

ZEAMX (Corn, Field) = assay: Preemergence herbicidal evaluation; assay type: in vivo, Zea mays, L.; details: rated 4-5 weeks after treatment
CYPIR (Cyperus iria) = assay: Flooded paddy, postemergence weed control; assay type: in vivo; details: postemergence weeds, rated 3-4 weeks after treatment
Procedure, shortened: as §1

[7] = tested on: SAGPY (Sagittaria pygmaea); assay: Flooded paddy, postemergence weed control; assay type: in vivo, L.; details: postemergence weeds, rated 3-4 weeks after treatment
Procedure, shortened: as §1

[8] = tested on: MOOVA (Monochoria vaginalis); assay: Flooded paddy, postemergence weed control; assay type: in vivo, Presl.; details: postemergence weeds, rated 3-4 weeks after treatment
Procedure, shortened: as §1

[9] = tested on: TRZAWR (Wheat, Winter, cv Riband); assay: Postemergence herbicidal evaluation; assay type: in vivo, Triticum aestivum; details: for TRZAWR herbicidal rating: postemergence
Procedure, shortened: as §2

[10] = tested on: ECHORC (Echinochloa oryzoides); assay: Flooded paddy, postemergence weed control; assay type: in vivo, Echinochloa oryzoides (Ard.) Fritsch.; details: postemergence weeds, rated 3-4 weeks after treatment
Procedure, shortened: as §1

[11] = tested on: CYPSE (Cyperus serotinus); assay: Flooded paddy, preemergence weed control; assay type: in vivo, Rottb.; details: rated 3-4 weeks after treatment, 0-9 rating scale
Procedure, shortened: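 Seeds or propagules were planted 0.5 cm deep in silt loam and flooded to 1.5–3 cm. Compounds in 50/50 v/v aqueous/acetone were pipetted into the flood water at about 0.0080 to 0.1250 kg/ha. After 3–4 weeks in the greenhouse, effect was rated visually on a 0–9 scale versus untreated control.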

ORYSAT (Rice, Tebonnet) = assay: Flooded paddy, post-transplant and postemergence rice tolerance; assay type: in vivo, Oryza sativa, (L.) Tebonnet; details: post-transplant rice, rated 3-4 weeks after treatment
Procedure, shortened: as §1

[12] = tested on: ABUTH (Abutilon theophrasti); assay: Preemergence herbicidal evaluation; assay type: in vivo, Medic.; details: rated 4-5 weeks after treatment

## Cn1c(C(F)(F)F)cc(=O)n(-c2ccc3snc(-c4nccs4)c3c2)c1=O [Compound 53, 1-methyl-3-[3-(2-thiazolyl)-1,2-benzisothiazol-5-yl]-6-(trifluoromethyl)uracil]
[1]; 0.0320 kg/ha into flood water
  herbicide rating (0-9) CYPSE: 0.0
[1]; 0.0620 kg/ha into flood water
  herbicide rating (0-9) CYPSE: 8.0
[1]; 0.1250 kg/ha into flood water
  herbicide rating (0-9) CYPSE: 8.0
[2]; Rate 0.0620 kg/ha
  Preemergence herbicidal rating GLXMAW: 1.0
[2]; Rate 0.1250 kg/ha
  Preemergence herbicidal rating GLXMAW: 2.5
[2]; Rate 0.2500 kg/ha
  Preemergence herbicidal rating GLXMAW: 6.5
[3]; rate 0.0320 kg/ha
  CHEAL herbicidal rating: 4.5
[3]; rate 0.0620 kg/ha
  CHEAL herbicidal rating: 7.0
[3]; rate 0.1250 kg/ha
  CHEAL herbicidal rating: 9.0
[4]; rate 0.0320 kg/ha
  AMBEL herbicidal rating: 6.5
[4]; rate 0.0620 kg/ha
  AMBEL herbicidal rating: 9.0
[4]; rate 0.1250 kg/ha
  AMBEL herbicidal rating: 9.0
[5]; rate 0.0320 kg/ha
  CASOB herbicidal rating: 2.0
[5]; rate 0.0620 kg/ha
  CASOB herbicidal rating: 4.0
[5]; rate 0.1250 kg/ha
  CASOB herbicidal rating: 3.0
[6]; Rate 0.0620 kg/ha
  Preemergence herbicidal rating TRZAWR: 1.0
[6]; Rate 0.1250 kg/ha
  Preemergence herbicidal rating TRZAWR: 3.5
[6]; Rate 0.2500 kg/ha
  Preemergence herbicidal rating TRZAWR: 5.0
GALAP (Galium aparine); Rate 0.0620 kg/ha
  Preemergence herbicidal rating GALAP: 8.0
GALAP (Galium aparine); Rate 0.1250 kg/ha
  Preemergence herbicidal rating GALAP: 8.0
GALAP (Galium aparine); Rate 0.2500 kg/ha
  Preemergence herbicidal rating GALAP: 9.0
ZEAMX (Corn, Field); Rate 0.0620 kg/ha
  Preemergence herbicidal rating ZEAMX: 4.0
ZEAMX (Corn, Field); Rate 0.1250 kg/ha
  Preemergence herbicidal rating ZEAMX: 5.0
ZEAMX (Corn, Field); Rate 0.2500 kg/ha
  Preemergence herbicidal rating ZEAMX: 7.0
CYPIR (Cyperus iria); 0.0320 kg/ha into flood water
  herbicide rating (0-9) CYPIR: 0.0
CYPIR (Cyperus iria); 0.1250 kg/ha into flood water
  herbicide rating (0-9) CYPIR: 7.0
[7]; 0.0320 kg/ha into flood water
  herbicide rating (0-9) SAGPY: 0.0
[7]; 0.0620 kg/ha into flood water
  herbicide rating (0-9) SAGPY: 0.0
[7]; 0.1250 kg/ha into flood water
  herbicide rating (0-9) SAGPY: 0.0
[8]; 0.0320 kg/ha into flood water
  herbicide rating (0-9) MOOVA: 0.0
[8]; 0.0620 kg/ha into flood water
  herbicide rating (0-9) MOOVA: 0.0
[8]; 0.1250 kg/ha into flood water
  herbicide rating (0-9) MOOVA: 2.0
[9]; rate 0.0320 kg/ha
  TRZAWR herbicidal rating: 3.3
[9]; rate 0.0620 kg/ha
  TRZAWR herbicidal rating: 4.0
[9]; rate 0.1250 kg/ha
  TRZAWR herbicidal rating: 4.0
[10]; 0.0320 kg/ha into flood water
  herbicide rating (0-9) ECHORC: 2.0
[10]; 0.0620 kg/ha into flood water
  herbicide rating (0-9) ECHORC: 7.0
[10]; 0.1250 kg/ha into flood water
  herbicide rating (0-9) ECHORC: 8.0
[11]; rate 0.0320 kg/ha
  herbicidal rating, CYPSE: 3.0
[11]; rate 0.1250 kg/ha
  herbicidal rating, CYPSE: 9.0
ORYSAT (Rice, Tebonnet); 0.0320 kg/ha into flood water
  herbicide rating (0-9) ORYSAT (rice tolerance): 2.0
ORYSAT (Rice, Tebonnet); 0.0620 kg/ha into flood water
  herbicide rating (0-9) ORYSAT (rice tolerance): 4.0
ORYSAT (Rice, Tebonnet); 0.1250 kg/ha into flood water
  herbicide rating (0-9) ORYSAT (rice tolerance): 6.0
[12]; Rate 0.0620 kg/ha
  Preemergence herbicidal rating ABUTH: 5.0
[12]; Rate 0.1250 kg/ha
  Preemergence herbicidal rating ABUTH: 7.5
[12]; Rate 0.2500 kg/ha
  Preemergence herbicidal rating ABUTH: 9.0

## Cc1cc(C)c(-c2nsc3ccc(-n4c(=O)cc(C(F)(F)F)n(C)c4=O)cc23)s1 [Compound 27, 3-[3-(3,5-dimethyl-2-thienyl)-1,2-benzisothiazol-5-yl]-1-methyl-6-(trifluoromethyl)uracil]
[1]; 0.0320 kg/ha into flood water
  herbicide rating (0-9) CYPSE: 0.0
[1]; 0.0620 kg/ha into flood water
  herbicide rating (0-9) CYPSE: 0.0
[1]; 0.1250 kg/ha into flood water
  herbicide rating (0-9) CYPSE: 4.0
[2]; Rate 0.0620 kg/ha
  GLXMAW preemergence herbicidal rating: 1.0
[2]; Rate 0.1250 kg/ha
  GLXMAW preemergence herbicidal rating: 2.0
[2]; Rate 0.2500 kg/ha
  GLXMAW preemergence herbicidal rating: 1.0
[3]; rate 0.0320 kg/ha
  Postemergence herbicidal rating, CHEAL: 9.0
[3]; rate 0.0620 kg/ha
  Postemergence herbicidal rating, CHEAL: 9.0
[4]; rate 0.0320 kg/ha
  Postemergence herbicidal rating, AMBEL: 9.0
[4]; rate 0.0620 kg/ha
  Postemergence herbicidal rating, AMBEL: 9.0
[5]; rate 0.0320 kg/ha
  Postemergence herbicidal rating, CASOB: 3.0
[5]; rate 0.0620 kg/ha
  Postemergence herbicidal rating, CASOB: 3.0
[6]; Rate 0.0620 kg/ha
  TRZAWR preemergence herbicidal rating: 2.0
[6]; Rate 0.1250 kg/ha
  TRZAWR preemergence herbicidal rating: 2.0
[6]; Rate 0.2500 kg/ha
  TRZAWR preemergence herbicidal rating: 2.0
GALAP (Galium aparine); Rate 0.0620 kg/ha
  GALAP preemergence herbicidal rating: 9.0
GALAP (Galium aparine); Rate 0.1250 kg/ha
  GALAP preemergence herbicidal rating: 7.0
GALAP (Galium aparine); Rate 0.2500 kg/ha
  GALAP preemergence herbicidal rating: 8.0
ZEAMX (Corn, Field); Rate 0.0620 kg/ha
  ZEAMX preemergence herbicidal rating: 3.0
ZEAMX (Corn, Field); Rate 0.1250 kg/ha
  ZEAMX preemergence herbicidal rating: 3.0
ZEAMX (Corn, Field); Rate 0.2500 kg/ha
  ZEAMX preemergence herbicidal rating: 3.0
CYPIR (Cyperus iria); 0.0320 kg/ha into flood water
  herbicide rating (0-9) CYPIR: 9.0
CYPIR (Cyperus iria); 0.0620 kg/ha into flood water
  herbicide rating (0-9) CYPIR: 9.0
CYPIR (Cyperus iria); 0.1250 kg/ha into flood water
  herbicide rating (0-9) CYPIR: 9.0
[7]; 0.0320 kg/ha into flood water
  herbicide rating (0-9) SAGPY: 0.0
[7]; 0.0620 kg/ha into flood water
  herbicide rating (0-9) SAGPY: 0.0
[7]; 0.1250 kg/ha into flood water
  herbicide rating (0-9) SAGPY: 0.0
[8]; 0.0320 kg/ha into flood water
  herbicide rating (0-9) MOOVA: 6.0
[8]; 0.0620 kg/ha into flood water
  herbicide rating (0-9) MOOVA: 9.0
[8]; 0.1250 kg/ha into flood water
  herbicide rating (0-9) MOOVA: 9.0
[9]; rate 0.0320 kg/ha
  Postemergence herbicidal rating, TRZAWR: 5.0
[9]; rate 0.0620 kg/ha
  Postemergence herbicidal rating, TRZAWR: 5.5
[10]; 0.0320 kg/ha into flood water
  herbicide rating (0-9) ECHORC: 0.0
[10]; 0.0620 kg/ha into flood water
  herbicide rating (0-9) ECHORC: 7.0
[10]; 0.1250 kg/ha into flood water
  herbicide rating (0-9) ECHORC: 9.0
[11]; rate 0.0080 kg/ha
  herbicidal rating, CYPSE: 0.0
[11]; rate 0.0320 kg/ha
  herbicidal rating, CYPSE: 4.5
[11]; rate 0.1250 kg/ha
  herbicidal rating, CYPSE: 6.0
ORYSAT (Rice, Tebonnet); 0.0320 kg/ha into flood water
  herbicide rating (0-9) ORYSAT (rice tolerance): 2.0
ORYSAT (Rice, Tebonnet); 0.0620 kg/ha into flood water
  herbicide rating (0-9) ORYSAT (rice tolerance): 4.0
ORYSAT (Rice, Tebonnet); 0.1250 kg/ha into flood water
  herbicide rating (0-9) ORYSAT (rice tolerance): 6.0
[12]; Rate 0.0620 kg/ha
  ABUTH preemergence herbicidal rating: 5.0
[12]; Rate 0.1250 kg/ha
  ABUTH preemergence herbicidal rating: 6.0
[12]; Rate 0.2500 kg/ha
  ABUTH preemergence herbicidal rating: 9.0
